Source: ChEMBL document CHEMBL1145787, “Synthesis and structure-activity relationship of N-substituted 4-arylsulfonylpiperidine-4-hydroxamic acids as novel, orally active matrix metalloproteinase inhibitors for the treatment of osteoarthritis” (J Med Chem, 2003)
Blank lines part the entries; values can stand above or below the compound they belong to.

Assays:
[1] = In vivo inhibitory activity against Matrix metalloprotease enzyme by dialysis implant assay, value are relative to activity of CGS-27023 (64+/-3) at 25 mg/kg. po; format: functional
[2] = In vivo inhibition of Matrix metalloprotease enzyme by Sponge-wrapped cartilage assay, value are relative to activity of RS-130830 (27+/-3) at 10 mg/kg. po. bid; format: functional
[3] = molecular target: T1, Interstitial collagenase (Homo sapiens, UniProt P03956); experiment: In vitro inhibitory activity against matrix metalloprotease-1
T1 sequence (P03956 whole entry): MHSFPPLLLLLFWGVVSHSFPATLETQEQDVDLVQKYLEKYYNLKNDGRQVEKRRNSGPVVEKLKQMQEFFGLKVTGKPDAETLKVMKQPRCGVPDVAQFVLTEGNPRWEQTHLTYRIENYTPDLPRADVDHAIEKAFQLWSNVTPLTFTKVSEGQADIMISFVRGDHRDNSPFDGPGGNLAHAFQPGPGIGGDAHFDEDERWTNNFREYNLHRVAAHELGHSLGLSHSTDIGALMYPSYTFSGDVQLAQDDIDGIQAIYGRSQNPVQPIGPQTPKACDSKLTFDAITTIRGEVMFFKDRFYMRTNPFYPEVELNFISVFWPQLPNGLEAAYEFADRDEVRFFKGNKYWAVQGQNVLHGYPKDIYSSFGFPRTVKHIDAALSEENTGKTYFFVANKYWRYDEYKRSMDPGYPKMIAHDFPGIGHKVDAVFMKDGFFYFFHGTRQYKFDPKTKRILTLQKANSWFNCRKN

[4] = molecular target: Matrix metalloproteinase-9 (Homo sapiens, UniProt P14780); experiment: In vitro inhibitory activity against matrix metalloprotease-9.
Matrix metalloproteinase-9, sequence (P14780 whole entry): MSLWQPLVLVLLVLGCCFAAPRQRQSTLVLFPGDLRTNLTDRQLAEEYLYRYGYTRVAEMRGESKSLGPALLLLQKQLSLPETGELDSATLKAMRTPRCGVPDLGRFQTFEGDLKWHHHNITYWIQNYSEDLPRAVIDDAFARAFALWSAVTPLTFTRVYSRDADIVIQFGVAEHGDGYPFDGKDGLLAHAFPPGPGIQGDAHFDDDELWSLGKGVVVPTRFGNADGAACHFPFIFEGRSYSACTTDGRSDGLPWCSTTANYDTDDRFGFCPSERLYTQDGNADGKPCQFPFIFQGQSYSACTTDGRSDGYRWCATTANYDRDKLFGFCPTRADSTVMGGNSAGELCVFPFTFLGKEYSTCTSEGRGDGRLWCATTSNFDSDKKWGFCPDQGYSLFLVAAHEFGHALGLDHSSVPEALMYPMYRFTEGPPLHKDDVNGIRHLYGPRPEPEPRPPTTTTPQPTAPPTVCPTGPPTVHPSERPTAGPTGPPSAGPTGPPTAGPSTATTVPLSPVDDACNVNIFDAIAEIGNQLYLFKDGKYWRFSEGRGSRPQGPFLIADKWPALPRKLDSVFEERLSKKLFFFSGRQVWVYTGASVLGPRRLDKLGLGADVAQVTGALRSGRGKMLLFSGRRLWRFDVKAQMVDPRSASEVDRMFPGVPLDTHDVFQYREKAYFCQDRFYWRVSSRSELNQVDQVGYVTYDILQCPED

[5] = molecular target: Collagenase 3 (Homo sapiens, UniProt P45452)
[6] = molecular target: Disintegrin and metalloproteinase domain-containing protein 17 (Homo sapiens, UniProt P78536)
Disintegrin and metalloproteinase domain-containing protein 17, sequence (P78536 whole entry, the tested form may be a part): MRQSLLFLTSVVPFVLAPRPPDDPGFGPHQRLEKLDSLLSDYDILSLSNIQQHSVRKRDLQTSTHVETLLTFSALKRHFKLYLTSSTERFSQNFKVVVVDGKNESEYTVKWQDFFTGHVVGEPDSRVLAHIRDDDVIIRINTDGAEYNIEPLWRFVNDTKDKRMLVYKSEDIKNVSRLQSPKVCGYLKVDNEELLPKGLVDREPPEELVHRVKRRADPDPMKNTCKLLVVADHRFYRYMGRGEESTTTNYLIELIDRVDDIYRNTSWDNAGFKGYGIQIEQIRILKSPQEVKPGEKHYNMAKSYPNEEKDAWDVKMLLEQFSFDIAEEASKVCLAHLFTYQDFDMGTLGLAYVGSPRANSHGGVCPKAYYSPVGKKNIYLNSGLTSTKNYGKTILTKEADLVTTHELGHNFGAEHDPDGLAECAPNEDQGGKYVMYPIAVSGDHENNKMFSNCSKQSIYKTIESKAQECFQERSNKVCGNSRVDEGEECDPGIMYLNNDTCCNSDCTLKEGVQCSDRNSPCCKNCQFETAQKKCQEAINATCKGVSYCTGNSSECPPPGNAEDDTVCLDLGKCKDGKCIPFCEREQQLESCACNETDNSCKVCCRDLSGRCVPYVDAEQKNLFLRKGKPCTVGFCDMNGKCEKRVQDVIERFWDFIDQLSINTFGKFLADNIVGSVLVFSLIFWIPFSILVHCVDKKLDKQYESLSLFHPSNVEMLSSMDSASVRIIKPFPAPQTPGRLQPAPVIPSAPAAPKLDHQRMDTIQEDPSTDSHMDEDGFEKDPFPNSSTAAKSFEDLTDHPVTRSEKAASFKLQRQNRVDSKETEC

[7] = In vivo inhibitory activity against Matrix metalloprotease enzyme by dialysis implant assay, value is relative to activity of CGS-27023 (53+/-3) at 25 mg/kg. po; format: functional
[8] = In vivo inhibitory activity against Matrix metalloprotease enzyme by dialysis implant assay, value is relative to activity of CGS-27023 (65+/-2) at 25 mg/kg. po; format: functional
[9] = In vivo inhibition of Matrix metalloprotease enzyme by Sponge-wrapped cartilage assay, value is relative to activity of RS-130830 (39+/-2) at 10 mg/kg. po. bid; format: functional
[10] = In vivo inhibitory activity against Matrix metalloprotease enzyme by dialysis implant assay, value is relative to activity of CGS-27023 (43+/-2) at 25 mg/kg. po; format: functional
[11] = In vivo inhibition of Matrix metalloprotease enzyme by Sponge-wrapped cartilage assay, value is relative to activity of RS-130830 (40+/-2) at 10 mg/kg. po. bid; format: functional

SMILES: CCC(CC)Oc1ccc(S(=O)(=O)C2(C(=O)NO)CCN(Cc3ccccc3)CC2)cc1
inhibition in vivo at 25 mg/kg [1]: 68% | inhibition in vivo at 10 mg/kg [2]: 27% | IC50 [3]: 3.16 µM | IC50 [4]: 0.014 µM | IC50 [5]: 0.005 µM | IC50 [6]: 0.039 µM

IC50 [4]: 0.013 µM
SMILES: COc1ccc(S(=O)(=O)C2(C(=O)NO)CCN(CCCc3ccccc3)CC2)cc1
inhibition in vivo at 25 mg/kg [7]: 9%

IC50 [5]: 0.002 µM
SMILES: CN1CCC(C(=O)NO)(S(=O)(=O)c2ccc(Oc3ccc(Cl)cc3)cc2)CC1
inhibition in vivo at 25 mg/kg [8]: 91% | inhibition in vivo at 10 mg/kg [9]: 73%

IC50 [4]: 0.01 µM | IC50 [5]: 0.002 µM
SMILES: CCCCOc1ccc(S(=O)(=O)C2(C(=O)NO)CCN(C)CC2)cc1
inhibition in vivo at 25 mg/kg [10]: 64% | inhibition in vivo at 10 mg/kg [11]: 12%
